Data set [1] has as its system HCT 116 cells. The data set is described as follows: MTT cytotoxicity assay, reference compounds. The data set is classed as cell-based. To be noted: Homo sapiens, read-out: Toxicity (IC50 value). Here is the method: (§1) Two human colon adenocarcinoma cell lines, HT-29 (ATCC® HTB-38TM) and […]), were used to evaluate cell cytotoxicity. […] Biowest Europe, Nuaillé, France). […] Cells were grown in 75 cm^2 flasks (Corning Flask, Corning, NY, USA) at 37 °C and in a 5% CO2 atmosphere and the media were renewed every 3 days. […] Cells were seeded at a density of 3.6 × 10^5 cells/mL on well plates, and washed with warm DPBS. […] After that, supernatants were removed from the wells, and MTT (Sigma-Aldrich, St. Louis, MO, USA) solution (0.5 mg/mL) was added (100 μL/well). The plates were immediately incubated for 3 h in darkness. After this time, MTT reagent was aspirated and formazan crystals were diluted in 100 μL of dimethyl sulfoxide (DMSO; Sigma-Aldrich, St. Louis, MO, USA). Absorbance at 570 nm was measured on a Multiskan plate reader (Thermo Scientific, Newington, NH, USA). Cell viability (%) was calculated as Abssample/Abscontrol × 100. Assays were performed in triplicate and three independent experiments were carried out.
In general terms: Formazan colour is commonly taken as a measure of viable cells.

Data set [2] has as its system HT-29 cells. Nature of the data set: MTT cytotoxicity assay, reference compounds. Type of data set: cell-based. Particulars: Homo sapiens, read-out: Toxicity (IC50 value). Here is the method: as §1
Data set [3] deals with HT-29 Glc–/þ cell line. Set-up: method as in PMID 25881551. To be noted: 24 h incubation; cited from earlier work.
In data set [4] the test system is HT-29 cells. Particulars: cited from earlier work.
Data set [5] deals with Caco 2 cells. Set-up: method as in PMID 30359553. To be noted: 24 h of incubation; cited from earlier work.

pIC50: −log10 of the molar value. Read-outs that look alike come from different tables or passages of the source.

Usually pIC50 stands for the IC50 on a negative log10 scale, so that one unit is a factor of ten. Regarding `Cc1ccc(O)cc1` [p-Cresol, p-cresol], the pIC50 was 2.25 in data set [1] (HCT 116, 4 h incubation, MTT); 2.38 in data set [1] (HCT 116, 24 h incubation, MTT); 2.27 in data set [2] (HT-29, 4 h incubation, MTT); 2.67 in data set [2] (HT-29, 24 h incubation, MTT). The “Concentration with cytotoxicity effects” value in data set [3] is 800 µM. Also, the “Concentration from which a cytotoxic effect was exerted” value in data set [4] (24 h of incubation) and in data set [5] was at least 3000 µM in each case.
Consider `Oc1ccccc1` [Phenol], for which the pIC50 in data set [1] (HCT-116, 4 h) was 1.62; in data set [1] (HCT-116, 24 h), 1.94; in data set [2] (HT-29, 4 h) it was 1.80; in data set [2] (HT-29, 24 h), 2.21. In addition, in data set [4], the “Concentration at which compound became cytotoxic” value was 1250 µM.

(Values after paper PMC7551400, “Moderate Wine Consumption Reduces Faecal Water Cytotoxicity in Healthy Volunteers” (Nutrients, 2020).)
